Legend:
[1] = test system: Nematoden wie Haemonchus concortus und Trichostrongylus colubriformis; assay: Test on sheep infected with nematodes (worm count in the intestine after treatment); format: in vivo, Schafe; settings: nematode-infected sheep, single dose; at each of the doses 20, 10, 5 and 2 mg/kg; necropsy 7-10 days after treatment
Source text: Beispiel 14: Versuch an mit Nematoden wie Haemonchus concortus und Trichostrongylus colubriformis infizierten Schafen
Der Wirkstoff wird in Form einer Suspension mit einer Magensonde oder durch Pansen-Injektion Schafen verabreicht, die vorher mit Nematoden wie Haemonchus concortus und Trichostrongylus colubriformis künstlich infiziert wurden. Pro Versuch resp. pro Dosis werden 1 bis 3 Tiere verwendet. Jedes Schaf wird mit nur einer einzigen Dosis behandelt.
(§1) Eine erste Evaluierung erfolgt dadurch, dass die Anzahl der vor und nach der Behandlung im Kot der Schafe ausgeschiedenen Wurmeier verglichen werden.
Sieben bis zehn Tage nach der Behandlung werden die Schafe getötet und seziert. Die Auswertung erfolgt durch Auszählung der nach der Behandlung im Darm zurückbleibenden Würmer. Gleichzeitig und gleichartig infizierte aber unbehandelte Schafe dienen als Kontrolle resp. Vergleich.
Schafe, die mit einer Suspension eines Wirkstoffes aus der Tabelle I behandelt werden, zeigen im Vergleich zu unbehandelten, aber infizierten Vergleichsgruppen einen um mindestens 95 i reduzierten Nematodenbefall. Die Wirkungsdosis beträgt 20, 10, 5 und 2 mg/kg. Mit den Verbindungen Nr. 1, 2, 4, 11, 12 und 13 wird bei jeder der Dosen 100 % Wirkung erzielt.

[2] = test system: Fasciola hepatica; assay: Test on sheep infected with Fasciola hepatica (count of liver flukes in the bile ducts after treatment); format: in vivo, Schafe; settings: artificially infected sheep, single dose of suspension by stomach tube or rumen injection; 30 and 20 mg/kg Körpergewicht; necropsy 3-4 weeks after treatment
Source text: Beispiel 16: Versuch an mit Fasciola hepatica infizierten Schafen
Der Wirkstoff wird in Form einer Suspension mit einer Magensonde oder durch Pansen-Injektion Schafen verabreicht, die vorher mit Fasciola hepatica künstlich infiziert wurden. Pro Versuch resp. pro Dosis werden 3 Tiere verwendet. Jedes Tier wird mit nur einer einzigen Dosis behandelt.
as §1
Drei bis vier Wochen nach der Behandlung werden die Schafe getötet und seziert. Die Auswertung erfolgt durch das Auszählen der nach der Behandlung in den Gallengängen zurückgebliebenen Leberegel. Gleichzeitig und gleichartig infizierte aber unbehandelte Schafe dienen als Kontrolle resp. Vergleich. Der Unterschied der in den beiden Gruppen festgestellten Anzahl von Leberegeln ergibt den Wirkungsgrad des geprüften Wirkstoffs.
In diesem Versuch zeigen Wirkstoffe aus der Tabelle I bei Dosen von 30 und 20 mg/kg Körpergewicht stets eine mindestens 95%ige Wirksamkeit gegen Fasciola hepatica. Die Verbindungen Nr. 1, 2, 4, 5, 11, 12 und 13 zeigen jeweils vollständige Wirksamkeit (^= Abtötung 100 %).

CC(C)c1cc(Oc2ccc(C(F)(F)F)cc2)ccc1NC(=O)C1C(=O)N(C)C(=O)N(C)C1=O [compound 1]
Wirkung [1]: 100%
Wirksamkeit gegen Fasciola hepatica (Abtötung) [2]: 100%

Cc1cc(Oc2ccc(C(F)(F)F)cc2)cc(C)c1NC(=O)C1C(=O)N(C)C(=O)N(C)C1=O [compound 2]
Wirkung [1]: 100%
Wirksamkeit gegen Fasciola hepatica (Abtötung) [2]: 100%

Cc1cc(Oc2ccc(C(F)(F)F)cc2)ccc1NC(=O)C1C(=O)N(C)C(=O)N(C)C1=O [compound 4]
Wirkung [1]: 100%
Wirksamkeit gegen Fasciola hepatica (Abtötung) [2]: 100%

C=CCN1C(=O)C(C(=O)Nc2ccc(Oc3ccc(C(F)(F)F)cc3)cc2C)C(=O)N(C)C1=O (stereo not shown) [compound 5]
Wirksamkeit gegen Fasciola hepatica (Abtötung) [2]: 100%

Cc1cc(Oc2ccc(C(F)(F)F)cc2)cc(C)c1NC(=O)C1C(=O)N(C)C(=O)N(C2CC2)C1=O (stereo not shown) [compound 11]
Wirkung [1]: 100%
Wirksamkeit gegen Fasciola hepatica (Abtötung) [2]: 100%

C=CCN1C(=O)C(C(=O)Nc2c(C)cc(Oc3ccc(C(F)(F)F)cc3)cc2C)C(=O)N(C)C1=O (stereo not shown) [compound 12]
Wirkung [1]: 100%
Wirksamkeit gegen Fasciola hepatica (Abtötung) [2]: 100%

CC(C)c1cc(Oc2ccc(C(F)(F)F)cc2)ccc1NC(=O)C1C(=O)N(C)C(=O)N(C2CC2)C1=O (stereo not shown) [compound 13]
Wirkung [1]: 100%
Wirksamkeit gegen Fasciola hepatica (Abtötung) [2]: 100%

Reference: patent EP0102327A2, “Barbituric acid derivatives as anthelmintica” (CIBA-GEIGY AG, priority 1982, dated 1984)
